For 30 molecules, melting point results are on record in patent US8183262B2, “Pyridine derivatives as mGluR2 antagonists” (Hoffmann-La Roche Inc., priority 2007, dated 2012).

Regarding `NS(=O)(=O)c1cccc(-c2cn(-c3nc(-c4ccc(F)c(F)c4)cc(C(F)(F)F)n3)cn2)c1` [Example 396, 3-{1-[4-(3,4-Difluoro-phenyl)-6-trifluoromethyl-pyrimidin-2-yl]-1H-imidazol-4-yl}-benzenesulfonamide], the melting point was determined as 241.5 °C.

`NS(=O)(=O)c1ccc(-c2cc(-c3nc(-c4ccc(F)cc4)cc(C(F)(F)F)n3)ccn2)s1` [Example 397, 5-{4-[4-(4-Fluoro-phenyl)-6-trifluoromethyl-pyrimidin-2-yl]-pyridin-2-yl}-thiophene-2-sulfonic acid amide] displayed a melting point of 282 °C.

In turn, `NS(=O)(=O)c1cccc(-c2cc(-c3nc(-c4ccc(F)cc4)cc(C(F)(F)F)n3)ccn2)c1` [Example 398, 3-{4-[4-(4-Fluoro-phenyl)-6-trifluoromethyl-pyrimidin-2-yl]-pyridin-2-yl}-benzenesulfonamide] gave a melting point of 239.5 °C.

Turning to `NS(=O)(=O)c1ccc(-c2cc(-c3nc(-c4ccc(F)c(F)c4)cc(C(F)(F)F)n3)ccn2)s1` [Example 399, 5-{4-[4-(3,4-Difluoro-phenyl)-6-trifluoromethyl-pyrimidin-2-yl]-pyridin-2-yl}-thiophene-2-sulfonic acid amide], the melting point was found to be 281 °C.

Take `NS(=O)(=O)c1cccc(-c2cc(-c3nc(-c4ccc(F)c(F)c4)cc(C(F)(F)F)n3)ccn2)c1` [Example 400, 3-{4-[4-(3,4-Difluoro-phenyl)-6-trifluoromethyl-pyrimidin-2-yl]-pyridin-2-yl}-benzenesulfonamide]: the melting point was 233.5 °C.

In turn, `CN(C)S(=O)(=O)c1cccc(-c2cc(-c3nc(-c4ccc(C(F)(F)F)cc4)cc(C(F)(F)F)n3)ccn2)c1` [Example 401, N,N-Dimethyl-3-{4-[4-trifluoromethyl-6-(4-trifluoromethyl-phenyl)-pyrimidin-2-yl]-pyridin-2-yl}-benzenesulfonamide] displayed a melting point of 225 °C.

For `CNS(=O)(=O)c1cccc(-c2cc(-c3nc(-c4ccc(C(F)(F)F)cc4)cc(C(F)(F)F)n3)ccn2)c1` [Example 402, N-Methyl-3-{4-[4-trifluoromethyl-6-(4-trifluoromethyl-phenyl)-pyrimidin-2-yl]-pyridin-2-yl}-benzenesulfonamide], the melting point was 174 °C.

`CC(C)CN(C)S(=O)(=O)c1cccc(-c2cc(-c3nc(-c4ccc(C(F)(F)F)cc4)cc(C(F)(F)F)n3)ccn2)c1` [Example 403, N-Isobutyl-N-methyl-3-{4-[4-trifluoromethyl-6-(4-trifluoromethyl-phenyl)-pyrimidin-2-yl]-pyridin-2-yl}-benzenesulfonamide] yielded a melting point of 144 °C.

The molecule `CCCN(C)S(=O)(=O)c1cccc(-c2cc(-c3nc(-c4ccc(C(F)(F)F)cc4)cc(C(F)(F)F)n3)ccn2)c1` [Example 404, N-Methyl-N-propyl-3-{4-[4-trifluoromethyl-6-(4-trifluoromethyl-phenyl)-pyrimidin-2-yl]-pyridin-2-yl}-benzenesulfonamide] showed a melting point of 144 °C.

On to `O=S(=O)(NCc1ccccc1)c1cccc(-c2cc(-c3nc(-c4ccc(C(F)(F)F)cc4)cc(C(F)(F)F)n3)ccn2)c1` [Example 405, N-Benzyl-3-{4-[4-trifluoromethyl-6-(4-trifluoromethyl-phenyl)-pyrimidin-2-yl]-pyridin-2-yl}-benzenesulfonamide], for which the melting point stood at 202.5 °C.

In the case of `O=S(=O)(NCCc1ccccc1)c1cccc(-c2cc(-c3nc(-c4ccc(C(F)(F)F)cc4)cc(C(F)(F)F)n3)ccn2)c1` [Example 406, N-Phenethyl-3-{4-[4-trifluoromethyl-6-(4-trifluoromethyl-phenyl)-pyrimidin-2-yl]-pyridin-2-yl}-benzenesulfonamide], the melting point was 201 °C.

`O=S(=O)(NCC1CC1)c1cccc(-c2cc(-c3nc(-c4ccc(C(F)(F)F)cc4)cc(C(F)(F)F)n3)ccn2)c1` [Example 408, N-Cyclopropylmethyl-3-{4-[4-trifluoromethyl-6-(4-trifluoromethyl-phenyl)-pyrimidin-2-yl]-pyridin-2-yl}-benzenesulfonamide] registered a melting point of 133.5 °C.

For the molecule `O=S(=O)(NC1CC1)c1cccc(-c2cc(-c3nc(-c4ccc(C(F)(F)F)cc4)cc(C(F)(F)F)n3)ccn2)c1` [Example 409, N-Cyclopropyl-3-{4-[4-trifluoromethyl-6-(4-trifluoromethyl-phenyl)-pyrimidin-2-yl]-pyridin-2-yl}-benzenesulfonamide], the melting point came out at 195.5 °C.

`NS(=O)(=O)c1cccc(-c2cccc(-c3nc(-c4ccc(Cl)cc4Cl)cc(C(F)(F)F)n3)c2)c1` [Example 410, 3′-[4-(2,4-Dichloro-phenyl)-6-trifluoromethyl-pyrimidin-2-yl]-biphenyl-3-sulfonic acid amide] came in with a melting point of 202 °C.

As for `NS(=O)(=O)c1ccc(-c2cccc(-c3nc(-c4ccc(Cl)cc4Cl)cc(C(F)(F)F)n3)c2)s1` [Example 411, 5-{3-[4-(2,4-Dichloro-phenyl)-6-trifluoromethyl-pyrimidin-2-yl]-phenyl}-thiophene-2-sulfonic acid amide], the melting point is 237.5 °C.

For `NS(=O)(=O)c1cccc(-c2cccc(-c3nc(-c4ccc(C(F)(F)F)cc4F)cc(C(F)(F)F)n3)c2)c1` [Example 412, 3′-[4-(2-Fluoro-4-trifluoromethyl-phenyl)-6-trifluoromethyl-pyrimidin-2-yl]-biphenyl-3-sulfonic acid amide], the melting point was 224.5 °C.

Molecule `NS(=O)(=O)c1ccc(-c2cccc(-c3nc(-c4ccc(C(F)(F)F)cc4F)cc(C(F)(F)F)n3)c2)s1` [Example 413, 5-{3-[4-(2-Fluoro-4-trifluoromethyl-phenyl)-6-trifluoromethyl-pyrimidin-2-yl]-phenyl}-thiophene-2-sulfonic acid amide] yielded a melting point of 192 °C.

Regarding `Cc1cc(-c2cc(C(F)(F)F)nc(-c3ccnc(-c4ccc(S(N)(=O)=O)s4)c3)n2)ccc1Cl` [Example 414, 5-{4-[4-(4-Chloro-3-methyl-phenyl)-6-trifluoromethyl-pyrimidin-2-yl]-pyridin-2-yl}-thiophene-2-sulfonic acid amide], the melting point was determined as 280 °C.

In turn, `Cc1cc(-c2cc(C(F)(F)F)nc(-c3ccnc(-c4cccc(S(N)(=O)=O)c4)c3)n2)ccc1Cl` [Example 415, 3-{4-[4-(4-Chloro-3-methyl-phenyl)-6-trifluoromethyl-pyrimidin-2-yl]-pyridin-2-yl}-benzenesulfonamide] registered a melting point of 234 °C.

`Cc1cc(-c2ccc(C(F)(F)F)c(C)c2)nc(-c2cccc(-c3cccc(S(N)(=O)=O)c3)c2)n1` [Example 416, 3′-[4-Methyl-6-(3-methyl-4-trifluoromethyl-phenyl)-pyrimidin-2-yl]-biphenyl-3-sulfonic acid amide]: the melting point amounted to 222.5 °C.

For `Cc1cc(-c2ccc(C(F)(F)F)c(C)c2)nc(-c2cccc(-c3ccc(S(N)(=O)=O)s3)c2)n1` [Example 417, 5-{3-[4-Methyl-6-(3-methyl-4-trifluoromethyl-phenyl)-pyrimidin-2-yl]-phenyl}-thiophene-2-sulfonic acid amide], the melting point worked out at 242 °C.

The molecule `Cc1cc(-c2ccc(C(F)(F)F)cc2)nc(-c2cccc(-c3cccc(S(=O)(=O)NC(C)(C)C)c3)n2)n1` [Example 418, N-tert-Butyl-3-{6-[4-methyl-6-(4-trifluoromethyl-phenyl)-pyrimidin-2-yl]-pyridin-2-yl}-benzenesulfonamide] came in with a melting point above 250 °C.

On to `Cc1cc(-c2ccc(C(F)(F)F)cc2)nc(-c2cccc(-c3cccc(S(N)(=O)=O)c3)n2)n1` [Example 419, 3-{6-[4-Methyl-6-(4-trifluoromethyl-phenyl)-pyrimidin-2-yl]-pyridin-2-yl}-benzenesulfonamide], for which the melting point is 239 °C (dec.).

With `CNS(=O)(=O)c1cccc(-c2cccc(-c3cc(-c4ccc(C(F)(F)F)cc4)cc(C)n3)n2)c1` [Example 422, N-Methyl-3-[6′-methyl-4′-(4-trifluoromethyl-phenyl)-[2,2′]bipyridinyl-6-yl]-benzenesulfonamide], the melting point is 176 °C.

For `Cc1cc(-c2ccc(C(F)(F)F)cc2)cc(-c2cccc(-c3cccc(S(=O)(=O)N(C)C)c3)n2)n1` [Example 423, N,N-Dimethyl-3-[6′-methyl-4′-(4-trifluoromethyl-phenyl)-[2,2′]bipyridinyl-6-yl]-benzenesulfonamide], the melting point turned out to be 155 °C.

Take `Cc1cc(-c2ccc(C(F)(F)F)cc2)cc(-c2cccc(-c3cccc(S(=O)(=O)NC4CC4)c3)n2)n1` [Example 424, N-Cyclopropyl-3-[6′-methyl-4′-(4-trifluoromethyl-phenyl)-[2,2′]bipyridinyl-6-yl]-benzenesulfonamide]: the melting point stood at 150 °C.

In turn, `Cc1cc(-c2ccc(C(F)(F)F)cc2)cc(-c2cccc(-c3cccc(S(=O)(=O)N(C)C4CC4)c3)n2)n1` [Example 425, N-Cyclopropyl-N-methyl-3-[6′-methyl-4′-(4-trifluoromethyl-phenyl)-[2,2′]bipyridinyl-6-yl]-benzenesulfonamide] registered a melting point of 157 °C.

Molecule `Cc1cc(-c2ccc(C(F)(F)F)cc2)cc(-c2cccc(-c3cccc(S(=O)(=O)N4CCC4)c3)n2)n1` [Example 426, 6′-[3-(Azetidine-1-sulfonyl)-phenyl]-6-methyl-4-(4-trifluoromethyl-phenyl)-[2,2′]bipyridinyl] registered a melting point of 158 °C.

`Cc1cc(-c2ccc(C(F)(F)F)cc2)cc(-c2cccc(-c3cccc(S(=O)(=O)N4CCC(O)CC4)c3)n2)n1` [Example 427, 1-{3-[6′-Methyl-4′-(4-trifluoromethyl-phenyl)-[2,2′]bipyridinyl-6-yl]-benzenesulfonyl}-piperidin-4-ol] came in with a melting point of 195 °C.

As for `Cc1cc(-c2ccc(C(F)(F)F)cc2)cc(-c2cccc(-c3cccc(S(=O)(=O)N4CC(O)C4)c3)n2)n1` [Example 428, 1-{3-[6′-Methyl-4′-(4-trifluoromethyl-phenyl)-[2,2′]bipyridinyl-6-yl]-benzenesulfonyl}-azetidin-3-ol], the melting point was 205 °C.
